Measurements published in patent publication US10167262B2, “Herbicidal substituted 3-arylpyrazoles” (FMC CORPORATION, priority 2014, dated 2019).

How the values were obtained:
Type in all cases: in vivo
[1] = test system: barnyardgrass (Echinochloa crus-galli); experiment: Test A pre-/postemergence greenhouse herbicide test, visual injury rating 0-100; conditions: 1000 g ai/ha
Procedure, shortened: (§1)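 Visual injury versus untreated controls, scored about 10 days after treatment on a 0 to 100 scale (0 = no effect, 100 = complete control). Applications were preemergence directed soil spray plus postemergence spray at one- to two-leaf stage, 2 to 10 cm plants.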

[2] = test system: corn (Zea mays); experiment: as above; conditions: 1000 g ai/ha
Procedure, shortened: as §1

[3] = test system: giant foxtail (Setaria faberii); experiment: as above; conditions: 1000 g ai/ha
Procedure, shortened: as §1

[4] = test system: large (Lg) crabgrass (Digitaria sanguinalis); experiment: as above; conditions: 1000 g ai/ha
Procedure, shortened: as §1

[5] = test system: morningglory (Ipomoea spp.); experiment: as above; conditions: 1000 g ai/ha
Procedure, shortened: as §1

[6] = test system: pigweed (Amaranthus retroflexus); experiment: as above; conditions: 1000 g ai/ha
Procedure, shortened: as §1

[7] = test system: velvetleaf (Abutilon theophrasti); experiment: as above; conditions: 1000 g ai/ha
Procedure, shortened: as §1

[8] = test system: wheat (Triticum aestivum); experiment: as above; conditions: 1000 g ai/ha
Procedure, shortened: as §1

[9] = test system: galium (catchweed bedstraw, Galium aparine); experiment: Test C pre-/postemergence greenhouse test, plant response rating 0-100; conditions: Postemergence; for Plant response rating, Galium: scale 0 to 100
Procedure, shortened: (§2)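 Plants were scored visually against controls 13–15 days after treatment on a 0–100 scale, 100 meaning complete control. Test chemicals, formulated in surfactant-containing non-phytotoxic solvent, went preemergence onto seeds in loam–sand blend or postemergence onto 1- to 4-leaf plants (2–18 cm) grown in peat-based mix.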

[10] = test system: morningglory (Ipomoea coccinea); experiment: as above; conditions: Postemergence; for Plant response rating, Morningglory: scale 0 to 100
Procedure, shortened: as §2

[11] = test system: chickweed (common chickweed, Stellaria media); experiment: Test C postemergence greenhouse test, plant response rating 0-100; conditions: for Plant response rating, Chickweed: scale 0 to 100
Excerpt: (§3) At the same time, plants selected from these crop and weed species and also winter barley (Hordeum vulgare), bermudagrass (Cynodon dactylon), downy bromegrass (Bromus tectorum), canarygrass (Phalaris minor), cocklebur (common cocklebur, Xanthium strumarium), woolly cupgrass (Eriochloa villosa), deadnettle (henbit deadnettle, Lamium amplexicaule), green foxtail (Setaria viridis), goosegrass (Eleusine indica), surinam grass (Brachiaria decumbens), windgrass (Apera spica-venti), chickweed (common chickweed, Stellaria media), kochia (Kochia scoparia), and wild oat (Avena fatua), were planted in pots containing Redi-Earth® planting medium (Scotts Company, 14111 Scottslawn Road, Marysville, Ohio 43041) comprising spaghnum peat moss, vermiculite, wetting agent and starter nutrients and treated with postemergence applications of test chemicals formulated in the same manner. Plants ranged in height from 2 to 18 cm (1- to 4-leaf stage) for postemergence treatments. Treated plants and controls were maintained in a greenhouse for 13 to 15 days, after which time all species were compared to controls and visually evaluated. Plant response ratings, summarized in Table C, are based on a scale of 0 to 100 where 0 is no effect and 100 is complete control. A dash (-) response means no test result.

[12] = test system: kochia (Kochia scoparia); experiment: as above; conditions: for Plant response rating, Kochia: scale 0 to 100
Excerpt: as §3

[13] = test system: wild oat (Avena fatua); experiment: as above; conditions: for Plant response rating, Oat, Wild: scale 0 to 100
Excerpt: as §3

Fc1ccc(NN=C(c2ccccc2)c2c[nH]nc2-c2cc(Cl)cc(Cl)c2)cc1 [Compound 35]
Plant response rating (0 to 100 scale), Barnyardgrass ([1]; Postemergence): 0
Plant response rating (0 to 100 scale), Barnyardgrass ([1]; Preemergence): 0
Plant response rating (0 to 100 scale), Corn ([2]; Postemergence): 0
Plant response rating (0 to 100 scale), Corn ([2]; Preemergence): 0
Plant response rating (0 to 100 scale), Foxtail, Giant ([3]; Postemergence): 0
Plant response rating (0 to 100 scale), Foxtail, Giant ([3]; Preemergence): 0
Plant response rating (0 to 100 scale), Crabgrass, Large ([4]; Postemergence): 0
Plant response rating (0 to 100 scale), Crabgrass, Large ([4]; Preemergence): 0
Plant response rating (0 to 100 scale), Morningglory ([5]; Postemergence): 0
Plant response rating (0 to 100 scale), Morningglory ([5]; Preemergence): 0
Plant response rating (0 to 100 scale), Pigweed ([6]; Postemergence): 90
Plant response rating (0 to 100 scale), Pigweed ([6]; Preemergence): 100
Plant response rating (0 to 100 scale), Velvetleaf ([7]; Postemergence): 90
Plant response rating (0 to 100 scale), Velvetleaf ([7]; Preemergence): 100
Plant response rating (0 to 100 scale), Wheat ([8]; Postemergence): 0
Plant response rating (0 to 100 scale), Wheat ([8]; Preemergence): 0
Plant response rating (0 to 100), Galium ([9]; 62 g ai/ha): 0
Plant response rating (0 to 100), Galium ([9]; 125 g ai/ha): 0
Plant response rating, Galium ([9]; 250 g ai/ha): 0
Plant response rating, Galium ([9]; 500 g ai/ha): 5
Plant response rating (0 to 100), Morningglory ([10]; 62 g ai/ha): 0
Plant response rating (0 to 100), Morningglory ([10]; 125 g ai/ha): 0
Plant response rating, Morningglory ([10]; 250 g ai/ha): 5
Plant response rating, Morningglory ([10]; 500 g ai/ha): 5
Plant response rating (0 to 100), Chickweed ([11]; 62 g ai/ha): 98
Plant response rating (0 to 100), Chickweed ([11]; 125 g ai/ha): 100
Plant response rating, Chickweed ([11]; 250 g ai/ha): 100
Plant response rating, Chickweed ([11]; 500 g ai/ha): 100
Plant response rating (0 to 100), Kochia ([12]; 62 g ai/ha): 50
Plant response rating (0 to 100), Kochia ([12]; 125 g ai/ha): 55
Plant response rating, Kochia ([12]; 250 g ai/ha): 90
Plant response rating, Kochia ([12]; 500 g ai/ha): 95
Plant response rating (0 to 100), Oat, Wild ([13]; 62 g ai/ha): 0
Plant response rating (0 to 100), Oat, Wild ([13]; 125 g ai/ha): 0
Plant response rating, Oat, Wild ([13]; 250 g ai/ha): 0
Plant response rating, Oat, Wild ([13]; 500 g ai/ha): 0
